Measurements published in US7276510B2, “HIV replication inhibitors” (Janssen Pharmaceutica, Inc., priority 2000, dated 2007).

How the values were obtained:
[1] = tested on: mock-infected MT-4 cells; assay: Cytotoxicity in mock-infected MT-4 cells (MTT); format: cell-based; conditions: read-out: CC50 (50% cytotoxic concentration), OD 540 nm
Method: (§1) A rapid, sensitive and automated assay procedure was used for the in vitro evaluation of anti-HIV agents. An […] T4-cell line, MT-4, which was previously shown (Koyanagi et al., Int. J. Cancer, 36, 445-451, 1985) to be highly susceptible to and permissive for HIV infection, served as the target cell line. Inhibition of the HIV-induced cytopathic effect was used as the end point. The viability of both HIV- and mock-infected cells was assessed spectrophotometrically via the in situ reduction of 3-(4,5-dimethylthiazol-2-yl)-2,5-diphenyltetrazolium bromide (MTT). […] The percent protection achieved by the compound in HIV-infected cells was calculated by the following formula:
(§2) [formula] whereby (ODT)HIV is the optical density measured with a given concentration of the test compound in HIV-infected cells; (ODC)HIV is the optical density measured for the control untreated HIV-infected cells; (ODC)MOCK is the optical density measured for the control untreated mock-infected cells; all optical density values were determined at 540 nm. […] The ratio of CC50 to IC50 was defined as the selectivity index (SI).

[2] = tested on: HIV-infected MT-4 cells; assay: Inhibition of the HIV-induced cytopathic effect in MT-4 cells (MTT); format: cell-based; conditions: read-out: IC50 (50% inhibitory concentration; dose achieving 50% protection); HIV-infected MT-4 cells, MTT, OD 540 nm
Method: as §1, §2

Cc1cc(C)c(Oc2cc(C(F)(F)F)nc(Nc3ccc(C#N)cc3)n2)c(C)c1 [Compound 25]
CC50 [1]: > 100 µM
IC50 [2]: 79 nM

CSc1nc(Nc2ccc(C#N)cc2)nc(Nc2c(C)cc(C)cc2C)n1 [Compound 20]
CC50 [1]: 3.98 µM
IC50 [2]: 2 nM
